Read-outs that look alike come from different tables or passages of the source.

In series [1] the test system is B16-F10 cells. The experiment in a line: MTT cytotoxicity assay, B16-F10. Particulars: Mus musculus. The format is cell-based. From the text:
(§1) We studied the growth-inhibitory effects of 2HF on the B16-F0 and B16-F10 murine melanoma cell lines as well as on the SK-MEL-24 human melanoma cell line. B16-F10 and SK-MEL-24 have been shown in previous studies to be highly resistant to treatment and much more invasive than B16-F0 [32]. […] The absorption value measured upon reduction of the MTT dye by functional mitochondria is an indirect measure of cell number that cannot distinguish inhibited cell proliferation from apoptotic or necrotic cell death. By counting viable (trypan-blue dye-excluding) cells using a hemacytometer, we verified that 2HF did indeed cause cell death.
(§2) Figure 1 Mouse and human melanoma cell survival following 2′-hydroxyflavanone (2HF) treatment.
(§3) The IC50 of 2HF on B16-F0, B16-F10, and SK-MEL-24 cells was determined by MTT cytotoxicity assay. Cells were harvested and Trypan Blue dye exclusion test was used to determine the number of viable cells present in a cell suspension using a hemocytometer. The cell suspension was diluted to 5 × 10^4 cells/mL with Dulbecco’s Modified Eagle’s Medium (DMEM) complete medium and 5000 cells/well were plated in 96-well plates. After 24 h incubation at 37 °C, cells were treated with 2HF concentrations ranging from 0–200 µM (8 replicates per plate). After 48 or 72 h incubation, 40 µL of MTT (5 mg/mL) solution was added. After 4 h incubation, the plate was centrifuged at 700× g for 5 min and medium was aspirated completely. Then, 50 µL DMSO was added to each well to dissolve the purple precipitate on the rocking platform for about 15 min. The absorbance was then measured at 490 nm using a 96-well microplate reader (Spectramax Plus, Molecular Devices, Inc, San Jose, CA, USA).

A further series relates to B16-F0 cells. Description: EGF-pHrodo endocytosis, B16-F0 (microscopy and flow cytometry). Particulars: Rlip-antisense, Rlip-shRNA, or 10 µM 2HF for 24 h. It is filed as cell-based, mouse. As for the experimental part: (§4) Figure 3 Effects of Rlip depletion on epidermal growth factor (EGF) endocytosis of mouse melanoma cells. Representative photomicrographs of Rlip-depleted B16-F0 and B16-F10 cells showing the inhibition of EGF-pHrodo endocytosis. […] Rlip was depleted by treating cells with Rlip-antisense, Rlip-shRNA, or 10 µM 2HF for 24 h as described in Materials and Methods section 4.8. Photographs were taken at identical exposures using 200× magnification.
Figure 4 Flow cytometry analysis of EGF-pHrodo endocytosis in control or Rlip depleted B16-F0 cells. Flow cytometry analysis of B16-F0 cells was performed 24 h after Rlip depletion by shRNA, RLIP76-antisense, or treatment with […] 2HF. Cells were stained with EGF-pHrodo. EGF-pHrodo-positive cells as shown on scatter plots were identified and gated based on forward and side scatter properties. The PE channel was used for red fluorescence to measure EGF-pHrodo positivity. […] Each flow cytometry analysis plot is a representative example of three independent experiments. […]
The effect of Rlip knockdown/depletion by shRNA, RLIP76-antisense (R508), or 2HF on endocytosis was studied in B16 melanoma cell lines. […] Slides were analyzed using a fluorescence microscope (Olympus America, Melville, NY, USA). […]
The effect of Rlip knockdown on endocytosis was further checked by flow cytometry. […] After 24 h, cells were trypsinized, washed with cold PBS, and counted. […]
(A flow cytometer gives signals particle by particle.)

Series [2] is described as follows: Blood counts and serum chemistry after topical 2HF. It is filed as in vivo, B16-F0 melanoma-bearing C57B mice. The note with it: topical 12 mg 2HF/0.1 mL PLO gel. As for the experimental part:
Blood samples were collected from representative mice from the control and 2HF-treated with 12 mg/0.1 mL PLO gel topically each day for 8 weeks just before euthanasia. These samples were used for hematologic, hepatic, renal, and metabolic profiling. A Hemavet instrument (Drew Scientific, Dallas, TX, USA) was used for determination of hematologic parameters.

A further series relates to SK-MEL-24 cells. The experiment in a line: MTT cytotoxicity assay, SK-MEL-24. It is filed as cell-based. The note with it: Homo sapiens.
From the text: as §1, §2, §3

Series [3] relates to B16-F10 cells. The experiment in a line: EGF-pHrodo endocytosis, B16-F10 (microscopy). The format is cell-based, mouse. The note with it: Rlip-antisense, Rlip-shRNA, or 10 µM 2HF for 24 h. As for the experimental part:
as §4
The effect of Rlip knockdown/depletion by shRNA, RLIP76-antisense (R508), or 2HF on endocytosis was studied in B16 melanoma cell lines. The cells were transfected with Rlip shRNA or R508 antisense and their scrambled shRNA and scrambled antisense (CAS) controls as previously described. Briefly, B16 cells were grown in DMEM medium containing 10% FBS on Nunc 4 chamber slides overnight to 70–80% confluence. For RLIP76 knockdown, pSUPER retro puro shRLIP plasmid DNA (8 µg/mL) and RLIP76-antisense (R508; 10 μg/mL final conc.) and their respective controls (scrambled shRNA and CAS) were pre-complexed with Lipofectamine 2000 reagent in Opti-MEM® reduced serum medium for transfection of the cells. Other sets of slides were treated with vehicle (Methanol) or 10 µM 2HF to inhibit Rlip expression. […] Slides were analyzed using a fluorescence microscope (Olympus America, Melville, NY, USA). […]

Setting [4] is: MTT, 72 h, mean ±SD, n = 5, read-out: IC50 at 72 h (growth/survival).
Setting [5] is: Table 1, agent alone, read-out: IC50.

Turning to `O=C1CC(c2ccccc2O)Oc2ccccc21` (stereo not shown) [2HF, 2′-hydroxyflavanone], the IC50 turned out to be 47 ± 6 µM in the series on B16-F10 cells [1] (setting [4]), 42 ± 1.83 µM in the series with B16-F10 cells [1] (setting [5]), 44 ± 6 µM with SK-MEL-24 cells (setting [4]) and 44.9 ± 1.67 µM with SK-MEL-24 cells (setting [5]). Further, the “EGF-pHrodo endocytosis (fluorescence microscopy)” value in the series with B16-F0 cells and with B16-F10 cells [3] was “completely blocked” throughout. Further, the “adverse effects on blood counts, renal function, or liver enzymes” value in series [2] was “no adverse effects”.

The record behind these values is publication PMC6826616, “Topical 2′-Hydroxyflavanone for Cutaneous Melanoma” (Cancers, 2019).
